One assay deals with human dendritic cells. In words: LPS-induced TNF-α secretion from human monocyte-derived dendritic cells. Format: cell-based. Conditions: FIG. 9. Here is the method: To isolate human monocytes, 20 mL of whole blood was withdrawn and mix with an equal volume of PBS. After adding 15 mL of Ficoll (GE HealthCare, USA) to a 50-mL tube, 15 mL of diluted whole blood was slowly added onto the Ficoll. Likewise, an equal amount of the remaining whole blood was dispensed slowly into a 50-mL tube containing 15 mL of Ficoll. Centrifugation was performed at 1000 x g for 20 minutes in a centrifuge at room temperature. After carefully removing plasma from the isolated whole blood, a portion including peripheral blood mononuclear cells (PBMCs) was transferred to a new 50-mL tube. After adding 10 mL of PBS to the tube containing PBMCs and mixing gently, centrifugation was performed at 400 x g for 10 minutes at room temperature. After carefully removing the supernatant, 1 mL of an RPMI 1640 medium containing 10% FBS was added to the PBMC pellets, and the cells were counted. After adding an RPMI-1640 medium (Welgene, Korea) containing 10% FBS to 1x10^6 cells per mL, 100 ng/mL GM-CSF (Peprotech, USA) and 50 ng/mL IL-4 (Peprotech, USA) were mixed. After adding 500 µL of PMBC to each well of a 24-well plate, the cells were differentiated in an incubator at 37 °C maintained at 5% CO2 for 5 days.
It was confirmed whether the sCD38 functional domain that induces tolerance of dendritic cells is also effective in human dendritic cells. To identify the functional domain of human sCD38, the C-terminal portion of human CD38 (H18 (283-300), H13 (284-296) (SEQ ID NO: 2)) were prepared into peptides. Human sCD38 and M19 peptides were treated as positive controls, and TNF-α secretion was observed using H18 and H13 peptides as one of the indicators of the degree of DC tolerance induction.
It was confirmed that the TNF-α secretion induced by LPS from human dendritic cells was reduced by the sCD38 functional domain peptides when the human sCD38 and M19 peptides were treated as positive controls and they were treated with the H18 and H13 peptides.

In a further assay the test system is DCs. Nature of the assay: LPS-induced TNF-α secretion from bone marrow-derived dendritic cells (ELISA), sCD38 functional domain screening. Format: cell-based, mouse. The conditions noted are these: DCs from bone marrow cells treated with GM-CSF, FIG. 1-3. As for the experimental part: To isolate bone marrow cells, mice (Damool Science, Korea) were anesthetized and sacrificed, and the femur and tibia were removed aseptically and the tissue attached to the bones was removed. After cutting off both ends of the bones, bone marrow was collected by slowly injecting 5-10 mL of a cell culture medium or a solution used for bone marrow separation into the medullary cavity at one end using a syringe needle, which was then filtered through a 70 µm cell strainer (SPL Life Sciences, Korea) and centrifuged to collect bone marrow cells. After treating with 1 mL of an RBC lysis solution (Merck, Germany) for 2-5 minutes to remove red blood cells, 10 mL of Dulbecco's phosphate-buffered saline (DPBS) (GIBCO, USA) was added, and bone marrow cells were collected through centrifugation. After washing the bone marrow cells 3 times with DPBS, 10 mL of a BMDC culture medium (RPMI-1640 (Welgene, Korea) containing 10% FBS (GIBCO, USA) and 10 ng/mL GM-CSF (Peprotech, USA)) was added to disperse the bone marrow cells into single cells. 1×10^5 bone marrow cells were dispensed into a 24-well culture dish and differentiated in a 37 °C incubator maintained at 5% CO2.
To screen the functional domain of sCD38 that induces dendritic cell tolerance, the domain of sCD38 was largely divided into three parts (CD38 amino acid sequence; 42-140 (1), 130-220 (2), 210-304 (3)). Using the three parts of sCD38, TNF-α secretion was observed as one of the indicators of the degree of DC tolerance induction.
An E. coli expression system was used to express the sCD38 domain protein. The sCD38 domain protein expressed in E. coli was purified using a purification system and used for screening. For fast and easy screening of the domain protein of sCD38, an ELISA method that measures the pro-inflammatory cytokine TNF-α was adopted. When the DCs obtained by treating the bone marrow cells with GM-CSF are treated with LPS, the DCs differentiate into mature DCs and the secretion of TNF-α is increased. It was confirmed that TNF-α secretion from DCs induced by LPS was reduced by the treatment with sCD38 (SEQ ID NO: 33). As a result of treating with sCD38 functional domain, (1) 42-140, (2) 130-220, and (3) 210-304, it was confirmed that the TNF-α secretion from dendritic cells induced by LPS (Merck, Germany) was reduced by the sCD38 functional domain (3).
After the first screening of the sCE38 functional domain that induces dendritic cell tolerance, the selected domain was divided into two parts (C-term 226-265 and C-term 266-304 of CD38 210-304 (3), (SEQ ID NO: 26)). After the domain was divided into two parts, TNF-α secretion was observed as one of the indicators of the degree of DC tolerance induction.
An E. coli expression system was used to express the divided two parts of sCD38. As a result of treating with the divided two parts (C-term 226-265, C-term 266-304) of the sCD38 functional domain (3), it was confirmed that the TNF-α secretion from dendritic cells induced by LPS was reduced by the sCD38 functional domain C-term 266-304.
After the second screening of the sCE38 functional domains that induce dendritic cell tolerance, the screened domain was divided into seven parts and peptide synthesis was performed (peptide 1: 233-247 of sCD38 226-304, peptide 2: 251-265, peptide 3: 269-283, peptide 4: 266-304 (SEQ ID NO: 26), peptide 5 (M19): 286-304 (SEQ ID NO: 21), peptide 6 (M16): 287-302 (SEQ ID NO: 11), peptide 7 (M14): 287-300 (SEQ ID NO: 4)). […]
For orientation: In an ELISA, binding on a coated surface is turned into a signal by an enzyme label.

Assay [1] concerns ulcerative colitis animal model. In words: DSS-induced animal model of ulcerative colitis, colon length. Format: in vivo, C57BL/6 mice. Conditions: for colon length: 20 µg intrarectally daily for 2 weeks, DSS 6-7 days, FIG. 8. Here is the method: A control ulcerative colitis animal model was established by allowing C57BL/6 mice (Damool Science, Korea) to drink drinking water containing 2-3% dextran sulfate sodium (DSS) (MP Biomedicals, China) for 6-7 days. Administration of DSS increases the level of inflammatory cytokines and causes colitis in mice. The experimental animal model was treated with DSS for 6-7 days, and 20 µg of the sCD38 functional domain (M19 peptide (Peptron, Korea)) was injected intrarectally daily for 2 weeks. Then, it was determined whether the progression of ulcerative colitis was reduced. LiCl (Merck, Germany) was used instead of the sCD38 functional domain (M19 peptide) for a positive control group.
In contrast, it was confirmed that the colon length of the experimental animal model treated with the sCD38 functional domain (M19 peptide) was not shortened.

Assay [2] concerns autoimmune uveitis animal model. In words: Animal model of autoimmune uveitis (IRBP/PTX-induced), severity. Format: in vivo, C57BL/6 mice. Conditions: injected into the eye twice a week, versus uninjected uveitis control; FIG. 4. Here is the method: Autoimmune uveitis was induced by […] retinoid-binding protein (IRBP) (Peptron, Korea) into the hind limb muscles of C57BL/6 mice (Damool Science, Korea) and intraperitoneal injection of pertussis toxin (PTX) (List Lab, USA). After 10 to 14 days, the presence or absence of autoimmune uveitis was confirmed in the eyes of the mice. The functional domain of sCD38 (226-304) was injected into the eye of the animal model that developed autoimmune uveitis twice a week to determine the progression of autoimmune uveitis. An autoimmune uveitis animal model to which the functional domain of sCD38 (226-304) was not injected was used as a control group, and animals to which the functional domain of sCD38 (226-304) was injected were used as a test group. The severity of autoimmune uveitis was measured for the experimental animals.

The subject of assay [3] is animal model of rheumatoid arthritis. In words: Collagen-induced arthritis (CIA) animal model of rheumatoid arthritis, hind ankle thickness. Format: in vivo, DBA/1 mice. Conditions: summary statement referring to Example 8. As for the experimental part: For induction of collagen-induced arthritis (CIA), 8-9 week-old male DBA/1 mice (Central Lab. Animal, Korea) were immunized with bovine type II collagen (CII) (Central Lab. Animal, Korea). CII was dissolved in 0.05 N acetic acid at a concentration of 2 mg/mL and emulsified at a ratio of 1:1 with complete Freund's adjuvant (CFA) (Central Lab. Animal, Korea) at 4 °C. For the first immunization, 150 µL of a mixture of 100 µg CII and 100 µg CFA was injected intradermally into the tail of the mice. Three weeks later, before booster injection, the sCD38 functional domain (sCD38-3) (226-304) or saline was injected into the ankle joint of the mice, and an equal volume of CII, emulsified at a ratio of 1:1 with incomplete Freund's adjuvant (IFA) (Merck, Germany), was injected into the tail (booster injection). The sCD38 functional domain (sCD38-3) was injected three more times, once a week. After 4 weeks of the booster injection, the mice were euthanized for analysis. After the booster injection, the thickness of the hind ankle of the animal model was measured using a vernier caliper.

Turning to “ARFLQCVKNPEHPSCRLNT (REGION 1..19: note = 19 mer (Mouse)) [M19, synthesized peptide 286-304 of mouse sCD38]”, the “TNF-α secretion induced by LPS from human dendritic cells” value (“TNF-α secretion induced by LPS” below) with human dendritic cells is listed as “reduced”. Moreover, the “TNF-α secretion from dendritic cells induced by LPS” value in the assay with DCs is reported as “reduced”. Besides, the figures for the colon length entry in assay [1] and in assay [1] (listed as M19 peptide) were “prevents shortening of the colon” and “not shortened”, respectively. Also, the “progression of ulcerative colitis” value in assay [1] (summary statement referring to Example 9) was “reduces”.
For the sequence “FLQCVKNPEDSSC (REGION 1..13: note = 13 mer (Human or Chimpaanze)) [H13, peptide 284-296 of human CD38]”, the “TNF-α secretion induced by LPS” value with human dendritic cells is recorded as “reduces”.
Turning to “KFLQCVKNPEDSSCTSEI (REGION 1..18: note = 18 mer (Human or Chimpaanze)) [H18, domain peptide 283-300 of human CD38]”, the “TNF-α secretion induced by LPS” value in the assay with human dendritic cells is recorded as “reduces”. The “TNF-α secretion from dendritic cells induced by LPS” value in the assay on DCs is reported as “reduced”.
For “LKMIVQKRNMIFACVDNYRPARFLQCVKNPEHPSCRLNT (REGION 1..39: note = 39 mer (Mouse)) [peptide 4, synthesized peptide 266-304 of mouse sCD38]”, the “progression of autoimmune uveitis” value in assay [2] is given as “reduces”. The “TNF-α secretion from dendritic cells induced by LPS” value in the assay with DCs was “reduced”. The rheumatoid arthritis result in assay [3] is “reduces”.
“RFLQCVKNPEHPSC (REGION 1..14: note = 14 mer (Mouse, Rat or Horse)) [M14, synthesized peptide 287-300 of mouse sCD38]”: the “TNF-α secretion from dendritic cells induced by LPS” value in the assay with DCs is “reduces”.
Turning to “RFLQCVKNPEHPSCRL (REGION 1..16: note = 16 mer (Mouse)) [M16, synthesized peptide 287-302 of mouse sCD38]”, the “TNF-α secretion from dendritic cells induced by LPS” value in the assay with DCs is listed as “reduces”.

The values are drawn from EP4667486A1, “COMPOSITION COMPRISING CD38 OR FRAGMENT THEREOF FOR TREATING AUTOIMMUNE DISEASES” (DNT Co., Ltd., priority 2023, dated 2024).
